# Activity calls are given as the source filed them. Peptide text beside a SMILES is read from it. * marks the point of attachment. Boc = CC(C)(C)OC(=O)*
# Tests used:
# [1] = inhibitors of firefly luciferase expression or activity, dose response, H4 neuroglioma cells, luminescence (AID 1990); format: functional, cell-based
# [2] = Luminescence Cell-Based Dose Response HTS to Identify Inhibitors of 5'UTR Stem-Loop Driven Prion Protein mRNA Translation in H4 Neuroglioblastoma Cells. [Related pubchem assays: 1827 (Project Summary), 1813 (Primary HTS)]; format: functional
# [3] = inhibitors of SNCA 5'UTR-driven reporter translation, confirmation, H4 neuroglioma cells, luminescence (AID 1988); format: functional, cell-based
# H4 = assay: Luminescence Cell-Based Dose Response HTS to Identify Activators of 5'UTR Stem-Loop Driven Prion Protein mRNA Translation in H4 Neuroglioblastoma Cells. [Related pubchem assays: 1829 (Project Summary), 1814 (Primary HTS)]; format: functional; conditions: Homo sapiens
# [4] = biological target: T1, Corticotropin-releasing factor receptor 2/Corticotropin-releasing factor-binding protein (Homo sapiens, UniProt P24387+Q13324); assay: Dose Response confirmation of uHTS hits for small molecule antagonists of the CRF-binding protein and CRF-R2 receptor complex.; format: functional; conditions: read-out: IC50_Mean
# T1 sequence (Q13324 whole entry): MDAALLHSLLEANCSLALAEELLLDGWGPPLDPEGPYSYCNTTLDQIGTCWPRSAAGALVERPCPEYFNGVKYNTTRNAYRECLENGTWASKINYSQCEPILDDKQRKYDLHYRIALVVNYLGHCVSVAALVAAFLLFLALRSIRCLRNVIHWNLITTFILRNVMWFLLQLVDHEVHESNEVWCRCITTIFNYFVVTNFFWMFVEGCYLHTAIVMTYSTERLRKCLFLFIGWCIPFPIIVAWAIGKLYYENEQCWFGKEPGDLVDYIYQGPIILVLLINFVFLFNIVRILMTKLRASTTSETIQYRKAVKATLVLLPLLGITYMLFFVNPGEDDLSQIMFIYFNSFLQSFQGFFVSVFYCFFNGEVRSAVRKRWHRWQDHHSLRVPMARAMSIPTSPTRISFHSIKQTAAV
# T1 sequence (P24387 whole entry): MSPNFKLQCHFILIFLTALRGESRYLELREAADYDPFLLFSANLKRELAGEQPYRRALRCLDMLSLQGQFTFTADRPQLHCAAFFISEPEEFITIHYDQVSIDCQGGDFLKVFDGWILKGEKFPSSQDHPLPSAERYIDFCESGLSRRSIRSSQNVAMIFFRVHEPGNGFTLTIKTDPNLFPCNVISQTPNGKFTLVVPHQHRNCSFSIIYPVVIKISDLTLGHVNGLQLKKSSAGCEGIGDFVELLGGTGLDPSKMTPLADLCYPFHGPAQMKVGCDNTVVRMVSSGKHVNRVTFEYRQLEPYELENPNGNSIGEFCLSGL
# [5] = biological target: T1, Corticotropin-releasing factor receptor 2/Corticotropin-releasing factor-binding protein; assay: activators of CRF receptor 2 with binding protein – uHTS hits, confirmation (AID 602473); format: functional; conditions: read-out: EC50_Mean
# Cytochrome P450 1A2 = biological target: T2, Cytochrome P450 1A2 (Homo sapiens, UniProt P05177);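 note: PubChem cytochrome P450 panel assay, CYP1A2 panel member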
# T2 sequence (P05177 whole entry): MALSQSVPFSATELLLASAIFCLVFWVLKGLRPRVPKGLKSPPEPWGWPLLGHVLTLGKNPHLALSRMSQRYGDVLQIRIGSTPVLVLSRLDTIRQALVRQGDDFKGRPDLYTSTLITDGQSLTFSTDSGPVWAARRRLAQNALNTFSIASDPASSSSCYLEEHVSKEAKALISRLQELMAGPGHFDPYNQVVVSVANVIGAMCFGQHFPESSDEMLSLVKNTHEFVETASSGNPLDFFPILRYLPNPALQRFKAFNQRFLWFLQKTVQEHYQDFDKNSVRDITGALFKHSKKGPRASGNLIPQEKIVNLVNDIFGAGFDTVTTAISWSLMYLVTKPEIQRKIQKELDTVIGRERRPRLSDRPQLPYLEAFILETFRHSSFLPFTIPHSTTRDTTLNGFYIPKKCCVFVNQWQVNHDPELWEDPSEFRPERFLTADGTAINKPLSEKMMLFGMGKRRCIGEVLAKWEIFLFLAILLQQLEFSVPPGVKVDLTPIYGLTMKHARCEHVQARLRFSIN
# Cytochrome P450 2C9 = Cytochrome P450 2C9 (Homo sapiens, UniProt P11712)
# Cytochrome P450 3A4 = Cytochrome P450 3A4 (Homo sapiens, UniProt P08684);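 note: CYP3A4 tested as one member of a cytochrome P450 panel screen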
# Cytochrome P450 2C19 = Cytochrome P450 2C19 (Homo sapiens, UniProt P33261); assay: Cytochrome panel assay with activity outcomes. Panel member name: p450-cyp2c19 Compounds with AC50 equal or less than 10 uM are considered active; format: functional; conditions: read-out: AC50
# [6] = inhibitors of intracellular T. cruzi replication, confirmation, NIH3T3 host cells, beta-gal luminescence (AID 2044); format: functional, cell-based;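 note: intracellular parasites grown in NIH/3T3 mouse fibroblasts as host cells; luminescent beta-galactosidase reporter signal from transgenic T. cruzi replicating inside host cells; inhibitors lower the luminescence signal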
# [7] = cytotoxicity toward NIH3T3 fibroblasts, dose response, counter-screen, cell-based, ATP luminescence, mouse fibroblasts (AID 2010); format: functional;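 note: cells exposed to compound for about 90 hours before reading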
# [8] = test system: Streptococcus sp. 'group A'; assay: growth inhibition of control SK(-) GAS strain, dose response, counter-screen for streptokinase expression inhibitor project, luminescence, kanamycin, BacTiterGlo, confirmation (AID 1900); format: functional, organism-based
# Streptokinase A = biological target: T3, Streptokinase A (Streptococcus pyogenes serotype M1, UniProt P10520); assay: S. pyogenes streptokinase expression inhibitors, potency, dose response, plasminogen activation absorbance, OD405 (AID 1914); format: functional, Streptococcus pyogenes M1 GAS;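 note: secreted streptokinase activity via plasminogen activation per viability signal from cell pellet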
# T3 sequence (P10520 whole entry): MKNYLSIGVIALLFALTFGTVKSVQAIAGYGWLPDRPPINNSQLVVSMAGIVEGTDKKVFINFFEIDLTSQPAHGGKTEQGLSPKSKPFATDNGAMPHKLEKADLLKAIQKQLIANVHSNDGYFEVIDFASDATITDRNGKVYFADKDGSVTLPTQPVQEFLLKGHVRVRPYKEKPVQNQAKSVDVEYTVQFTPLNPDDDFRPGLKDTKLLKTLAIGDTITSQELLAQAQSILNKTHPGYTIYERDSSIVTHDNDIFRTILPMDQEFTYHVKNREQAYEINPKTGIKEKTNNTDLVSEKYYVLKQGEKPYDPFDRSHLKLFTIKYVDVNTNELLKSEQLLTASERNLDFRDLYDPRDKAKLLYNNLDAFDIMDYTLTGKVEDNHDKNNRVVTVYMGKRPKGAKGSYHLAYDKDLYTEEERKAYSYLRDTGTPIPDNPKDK
# Streptococcus = assay: Group A Streptococcus viability loss, dose response, counter-screen for streptokinase expression inhibitor project, luminescence, BacTiterGlo (AID 1915); format: functional, organism-based;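 note: potency for reduction of bacterial viability or growth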
# Chain of Cytochrome P450 2C19 (P33261 whole entry): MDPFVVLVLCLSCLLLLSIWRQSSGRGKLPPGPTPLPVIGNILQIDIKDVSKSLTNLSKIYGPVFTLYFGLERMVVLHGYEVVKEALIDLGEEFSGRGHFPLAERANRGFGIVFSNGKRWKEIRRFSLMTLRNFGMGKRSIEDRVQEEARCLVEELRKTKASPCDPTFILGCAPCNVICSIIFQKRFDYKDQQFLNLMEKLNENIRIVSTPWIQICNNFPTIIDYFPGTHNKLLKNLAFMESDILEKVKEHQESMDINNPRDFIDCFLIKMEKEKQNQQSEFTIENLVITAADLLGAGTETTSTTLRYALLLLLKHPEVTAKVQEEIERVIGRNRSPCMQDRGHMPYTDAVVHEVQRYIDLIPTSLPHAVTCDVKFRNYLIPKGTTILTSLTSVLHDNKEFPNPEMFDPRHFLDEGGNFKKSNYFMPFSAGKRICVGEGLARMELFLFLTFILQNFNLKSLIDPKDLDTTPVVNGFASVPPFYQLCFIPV
# Chain of Cytochrome P450 2C9 (P11712 whole entry): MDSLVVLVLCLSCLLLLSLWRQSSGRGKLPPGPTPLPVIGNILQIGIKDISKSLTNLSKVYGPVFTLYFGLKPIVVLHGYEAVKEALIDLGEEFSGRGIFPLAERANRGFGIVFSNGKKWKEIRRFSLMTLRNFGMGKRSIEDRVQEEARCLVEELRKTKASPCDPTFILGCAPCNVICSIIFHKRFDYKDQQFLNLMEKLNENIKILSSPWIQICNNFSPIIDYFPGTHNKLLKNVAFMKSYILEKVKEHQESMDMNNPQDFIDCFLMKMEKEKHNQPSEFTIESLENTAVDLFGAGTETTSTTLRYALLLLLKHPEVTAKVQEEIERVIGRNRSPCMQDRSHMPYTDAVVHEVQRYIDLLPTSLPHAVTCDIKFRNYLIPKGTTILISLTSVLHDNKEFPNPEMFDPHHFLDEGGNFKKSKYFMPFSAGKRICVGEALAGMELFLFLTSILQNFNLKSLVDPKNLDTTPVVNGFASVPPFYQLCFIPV
# Chain of Cytochrome P450 3A4 (P08684 whole entry): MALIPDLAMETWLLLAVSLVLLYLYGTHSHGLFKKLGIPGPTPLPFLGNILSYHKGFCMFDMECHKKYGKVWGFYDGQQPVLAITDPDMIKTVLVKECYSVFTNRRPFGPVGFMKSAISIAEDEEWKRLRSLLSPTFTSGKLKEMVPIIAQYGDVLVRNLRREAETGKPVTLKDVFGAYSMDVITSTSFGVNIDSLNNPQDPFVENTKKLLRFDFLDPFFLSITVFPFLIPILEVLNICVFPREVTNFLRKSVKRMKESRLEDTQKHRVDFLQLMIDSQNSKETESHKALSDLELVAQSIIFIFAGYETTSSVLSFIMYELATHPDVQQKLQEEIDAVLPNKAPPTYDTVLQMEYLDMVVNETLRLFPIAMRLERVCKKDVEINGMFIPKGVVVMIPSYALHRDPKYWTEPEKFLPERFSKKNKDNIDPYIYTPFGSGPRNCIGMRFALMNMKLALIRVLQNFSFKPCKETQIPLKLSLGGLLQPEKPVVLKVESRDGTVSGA
SMILES,IC50 [4],EC50 [5],AC50 (Cytochrome P450 1A2),other results
CCCOc1ccc(N2C(=O)CC(N3CCC(c4nc5ccccc5o4)CC3)C2=O)cc1 (stereo not given),–,–,–,EC50 [1]: > 120 µM (not active); EC50 [2]: > 60 µM (not active); EC50 [3]: > 120 µM (not active)
COc1cc2ccccc2cc1C(=O)Nc1ccc(N2CCN(C)CC2)cc1,–,–,–,EC50 (H4): > 120 µM (not active)
CCc1c(C)sc(NC(=O)CSc2nc3c(c(C(F)(F)F)n2)CCc2ccccc2-3)c1C#N,–,–,–,EC50 [1]: > 120 µM (not active); EC50 [2]: > 120 µM (not active); EC50 [3]: 18.8 µM (active)
Cc1cccc(N(C(=O)c2sc(C)nc2C)C(C(=O)NCC2CCCO2)c2ccccc2)c1 (stereo not given),> 47.1 µM (inactive),> 53 µM (inactive),–,–
CCc1cc(C(=O)OC)c(NC(=O)CCCC(=O)O)s1,–,–,25.1 µM (inconclusive),AC50 (Cytochrome P450 2C9): 28.2 µM (inconclusive)
CCN(CC)c1ccc(NC(=O)CN2CCN(c3ccccc3F)CC2)cc1,–,–,28.2 µM (inconclusive),AC50 (Cytochrome P450 3A4): 15.8 µM (inconclusive)
NC(=O)Nc1n[nH]c(-c2ccccc2)n1,–,–,3.16 µM (inconclusive),–
CC(C)C(NC(=O)OC(C)(C)C)C(=O)N1CCCC1C(=O)NC(Cc1ccccc1)C(N)=O (stereo not drawn) (Boc-Val-Pro-Phe-NH2; configuration not given here),–,–,2 µM (inconclusive),AC50 (Cytochrome P450 2C19): 1.12 µM (inconclusive); AC50 (Cytochrome P450 3A4): 15.8 µM (inconclusive); AC50 (Cytochrome P450 2C9): 31.6 µM (inconclusive)
CCOc1ccc(OCCOCCN2CCc3ccccc3C2)cc1,–,–,20 µM (inconclusive),EC50 [6]: 0.124 µM (active); EC50 [7]: 21 µM (active); AC50 (Cytochrome P450 3A4): 25.1 µM (inconclusive); AC50 (Cytochrome P450 2C9): 11.2 µM (inconclusive)
c1ccc(-c2csc(Nc3nc(N4CCOCC4)nc(N4CCOCC4)n3)n2)cc1,–,–,5.62 µM (inconclusive),EC50 [6]: 0.104 µM (active); EC50 [7]: > 30 µM (not active); AC50 (Cytochrome P450 2C19): 5.62 µM (inconclusive); AC50 (Cytochrome P450 3A4): 10 µM (inconclusive); AC50 (Cytochrome P450 2C9): 3.16 µM (inconclusive)
Cc1ccc(OCCC(=O)O)cc1,> 47.1 µM (inactive),> 53 µM (inactive),–,–
O=C(COC(=O)c1cc2ccccc2cc1O)NC1CCCCC1,> 47.1 µM (inactive),> 53 µM (inactive),–,–
c1cncc(-c2cncnc2NC2CCNCC2)c1,–,–,12.6 µM (inconclusive),–
CCn1c(COc2ccc(C)cc2)nnc1SCc1ccc(C#N)cc1,–,–,28.2 µM (inconclusive),EC50 [8]: > 150 µM (not active); EC50 (Streptokinase A): > 150 µM (not active); EC50 (Streptococcus): > 150 µM (not active)
O=C(c1ccc(F)cc1)C1CCN(Cc2ccccc2F)CC1,> 47.1 µM (inactive),> 53 µM (inactive),–,–
Clc1ccc(CSc2ncnc3c2ncn3[C@@H]2CCCCO2)cc1,–,–,1.58 µM (inconclusive),–

SMILES,IC50 [4],EC50 [5],AC50 (Cytochrome P450 1A2),other results
CCCCCN(C(=O)CCC(=O)OCC(=O)c1c(C)cc(C)cc1C)c1c(N)n(CCCC)c(=O)[nH]c1=O,> 47.1 µM (inactive),> 53 µM (inactive),–,–
O=S(=O)(N=C(Nc1ccccn1)c1ccccc1)c1ccccc1,–,–,14.1 µM (inconclusive),AC50 (Cytochrome P450 2C19): 15.8 µM (inconclusive); AC50 (Cytochrome P450 3A4): 28.2 µM (inconclusive)
CC(=O)c1c(N2CCCCC2)nc(=S)n(Cc2ccccc2)c1C,> 47.1 µM (inactive),> 53 µM (inactive),–,–
N[C@H](C(=O)O)[C@@H]1[C@@H](C(=O)O)C1(F)F,–,–,31.6 µM (inconclusive),–
N#CC1=C(N)OC2=C(C(=O)CCC2)C12CCC1(CC2)OCCO1,–,–,25.1 µM (inconclusive),–
O=C(NNC(=O)c1oc2ccccc2c1-n1cccc1)c1ccco1,> 47.1 µM (inactive),> 53 µM (inactive),–,–
Nc1cc(N)nc(SCC(=O)NNC(=O)c2ccc(Cl)cc2)n1,–,–,15.8 µM (inconclusive),AC50 (Cytochrome P450 2C19): 39.8 µM (inconclusive); AC50 (Cytochrome P450 3A4): 14.1 µM (inconclusive); AC50 (Cytochrome P450 2C9): 28.2 µM (inconclusive)
O=C(O)CCNC(=O)OCC1c2ccccc2-c2ccccc21,> 47.1 µM (inactive),> 53 µM (inactive),–,–
CC(C)(C)OC(=O)N1CCN(c2ccc(CNC(=O)c3ccc(Cl)cc3)cc2)CC1,> 47.1 µM (inactive),> 53 µM (inactive),–,–
COc1ccc(CNC(=O)CN(C)S(=O)(=O)c2ccc3c(c2)n(C)c(=O)c(=O)n3C)cc1,> 47.1 µM (inactive),> 53 µM (inactive),–,–
CN(Cc1cc2ccccc2[nH]c1=O)S(C)(=O)=O,–,–,28.2 µM (inconclusive),–
Oc1cc(O)c2c(c1)O[C@H](c1ccc(O)c(O)c1)[C@@H](O)[C@@H]2c1c(O)cc(O)c2c1O[C@@H](c1ccc(O)c(O)c1)[C@H](O)C2,–,–,2.51 µM (inconclusive),–
O=C1c2ccccc2-c2ccc(NC(=O)[C@H]3CCCC[C@@H]3C(=O)O)cc21,–,–,1 µM (inconclusive),–
COc1ccc(CNC(=O)Nc2cccs2)cc1OC,> 47.1 µM (inactive),> 53 µM (inactive),–,AC50 (Cytochrome P450 2C9): 39.8 µM (inconclusive)
COc1ccc(N(CC(=O)NCCc2ccc(OC)c(OC)c2)S(=O)(=O)c2c(C)noc2C)cc1,> 47.1 µM (inactive),> 53 µM (inactive),–,–
